What follows are compounds tested against T1, M4 receptor (Homo sapiens, UniProt P08173) (assay: PAM agonistic activity of compound on M4 receptor (FLIPR Calcium 6 assay in M4-CHO cells)). Conditions: with acetylcholine (Ach), final concentration 3 nM.
T1 construct: expressed in transfected cells; host or cells: CHO (M4-CHO cells)
T1 sequence (P08173 1-479): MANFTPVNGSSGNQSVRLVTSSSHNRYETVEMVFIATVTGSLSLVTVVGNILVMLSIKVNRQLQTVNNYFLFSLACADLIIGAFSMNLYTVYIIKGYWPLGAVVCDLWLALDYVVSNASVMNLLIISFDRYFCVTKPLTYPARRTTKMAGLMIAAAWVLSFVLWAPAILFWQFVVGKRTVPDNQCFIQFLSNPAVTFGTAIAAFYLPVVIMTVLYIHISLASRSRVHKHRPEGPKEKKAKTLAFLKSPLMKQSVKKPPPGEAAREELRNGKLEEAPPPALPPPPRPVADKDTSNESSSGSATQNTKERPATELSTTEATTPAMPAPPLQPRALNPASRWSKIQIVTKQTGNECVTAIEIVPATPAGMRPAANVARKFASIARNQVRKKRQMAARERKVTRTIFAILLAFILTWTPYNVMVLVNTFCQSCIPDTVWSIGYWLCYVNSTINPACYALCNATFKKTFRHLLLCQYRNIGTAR
Assay type: cell-based
Description: • 1). Cell plating: M4-CHO cells were digested, collected, and resuspended. After cell counting, the cell suspension was seeded into a 384-well cell plate at a density of: 1.2 × 10^4 cells/25 µL/well. The cell plate was then cultured in a 37°C, 5% CO2 incubator for about 16-20 h. • 2). Day 2: Assay Buffer was prepared according to the instructions of the FLIPR Calcium 6 Assay Kit. Component A (20×) was thawed to room temperature and diluted with the Assay Buffer to prepare a loading buffer (1×), which was stored at room temperature until use. • 3). The culture medium was removed from the cell plate. 40 µL of the loading buffer (1×) was quickly added to each well. The cell plate was then centrifuged and incubated at 37°C in the dark for 120 min. • 4). Working solutions of the positive control compound and the test compounds were prepared. An acetylcholine (Ach) agonist compound solution was prepared (final concentration: 3 nM). The PAM compound and the Ach agonist solution were mixed at a 1 : 1 ratio, and the mixture was transferred into a 384-well compound source plate at 20 µL per well. • 5). The cell plate, the compound source plate, and the pipette tips were placed into the corresponding positions within the FLIPR instrument. 10 µL of the diluted compound from step 4 was added into each experimental well using the FLIPR Tetra. Data was collected at the wavelength of 515 nm-575 nm. • 6). The signal values were plotted against the compound concentrations. Nonlinear regression analysis was performed using GraphPad Prism software for curve fitting and EC50 calculation.
The experimental results are shown in Table 1, where A represents EC50 < […]; B represents 100 nM ≤ EC50 < 500 nM, and C represents 500 nM ≤ EC50. Table 1. Agonistic activity of compounds on M4 receptor

Row | Compound | EC50 [µM]
1 | Cc1cc(C)c2c(n1)CN(C(=O)CC1CN(c3ccnc(-n4cnc(C)n4)c3)C1)C2 [Compound 54] | < 0.1
2 | Cc1cc(C)c2c(n1)CN(C(=O)CC1CN(c3ccc4c(c3)C(F)C(F)C4)C1)C2 (racemic) [Compound 12, isomer 2] | < 0.1
3 | Cc1c2c(n(C(F)F)c(=O)c1F)CN(C(=O)CC1CN(c3ccnc(OC4CCOC4)c3)C1)C2 (stereo not drawn) [Compound 198] | < 0.1
4 | Cc1cc(C)c2c(n1)CN(C(=O)CC1CN(c3ccnc(-c4cnn(C)c4)c3)C1)C2 [Compound 7] | < 0.1
5 | Cc1cc(=O)n(C)c2c1CN(C(=O)OC1CN(c3ccnc(OC4CC(F)(F)C4)c3)C1)C2 [Compound 139] | < 0.1
6 | Cc1ccn(-c2cc(N3CC(CC(=O)N4Cc5c(C)cc(=O)n(C(F)F)c5C4)C3)ccn2)n1 [Compound 179] | < 0.1
7 | Cc1c2c(n(C)c(=O)c1F)CN(C(=O)CC1CN(c3ccnc(OC4CC(F)(F)C4)c3)C1)C2 [Compound 175] | < 0.1
8 | Cc1cc(S(C)(=O)=O)nc2c1CN(C(=O)CC1CN(c3ccnc(OC4CC(F)(F)C4)c3)C1)C2 [Compound 188] | < 0.1
9 | Cc1ncn(-c2cc(N3CC(CC(=O)N4Cc5c(C)c(F)c(=O)n(C)c5C4)C3)ccn2)n1 [Compound 211] | < 0.1
10 | Cc1cc(C)c2c(n1)CN(C(=O)CC1CN(c3ccnc(C(=O)NC4CC4)c3)C1)C2 [Compound 38] | < 0.1
11 | Cc1nc2c(c(N3CCC3)n1)CN(C(=O)CC1CN(c3ccnc(-n4nccc4C)c3)C1)C2 [Compound 62] | < 0.1
12 | Cc1ccn(-c2cc(N3CC(CC(=O)N4Cc5nc6c(c(C)c5C4)CCC6)C3)ncn2)n1 [Compound 92] | < 0.1
13 | Cc1cc(C)c2c(n1)CN(C(=O)CC1CN(c3ccnc(Oc4cnn(C(F)F)c4)c3)C1)C2 [Compound 37] | < 0.1
14 | Cc1cc(C)c2c(n1)CN(C(=O)CC1CN(c3ccnc(OC4CC4)c3)C1)C2 [Compound 49] | < 0.1
15 | Cc1cc(C)c2c(n1)CN(C(=O)CC1CN(c3cc(-n4ccc(F)n4)ncc3F)C1)C2 [Compound 149] | < 0.1
16 | Cc1cc(C)c2c(n1)CN(C(=O)CC1CN(c3ccnc(-n4cnc(C(F)(F)F)n4)c3)C1)C2 [Compound 47] | < 0.1
17 | Cc1cc(-c2cnn(C)c2)nc2c1CN(C(=O)CC1CN(c3ccnc(OC4CC4)c3)C1)C2 [Compound 148] | < 0.1
18 | Cc1c2c(nc3c1CN(C(=O)CC1CN(c4ccnc(-n5cccn5)c4)C1)C3)CCC2 [Compound 95] | < 0.1
19 | Cc1ccn(-c2cc(N3CC(CC(=O)N4Cc5c(C)c(F)c(=O)n(C)c5C4)C3)ccn2)n1 [Compound 209] | < 0.1
20 | Cc1c2c(n(C(F)F)c(=O)c1F)CN(C(=O)CC1CN(c3ccnc(OC4CC4)c3)C1)C2 [Compound 195] | < 0.1
21 | Cc1ccn(-c2cc(N3CC(CC(=O)N4Cc5nc(COC6COC6)cc(C)c5C4)C3)ccn2)n1 [Compound 85] | < 0.1
22 | Cc1cc(C)c2c(n1)CN(C(=O)CC1CN(c3ccnc(-c4ncnn4C)c3)C1)C2 [Compound 97] | < 0.1
23 | Cc1cc(C)c2c(n1)CN(C(=O)CC1CN(c3ccnc(-c4nc(C(F)(F)F)nn4C)c3)C1)C2 [Compound 44] | < 0.1
24 | Cc1cc(C)c2c(n1)CN(C(=O)CC1CN(c3ccnc(-c4ccnc(C(F)(F)F)c4)c3)C1)C2 [Compound 16] | < 0.1
25 | Cc1c2c(nc3c1CN(C(=O)CC1CN(c4ccnc(OC5CCOC5)c4)C1)C3)CCC2 (stereo not drawn) [Compound 93] | < 0.1
26 | Cc1ccn(-c2cc(N3CC(CC(=O)N4Cc5nc(C6CCOCC6)cc(C)c5C4)C3)ccn2)n1 [Compound 98] | < 0.1
27 | Cc1c2c(n(C)c(=O)c1F)CN(C(=O)CC1CN(c3ccnc(OC4CC4)c3)C1)C2 [Compound 215] | < 0.1

Row | Compound | EC50 [µM]
28 | Cc1cc(=O)n(C)c2c1CN(C(=O)CC1CN(c3ccnc(O[C@H]4CCOC4)c3)C1)C2 [Compound 117] | < 0.1
29 | Cc1cc(C)c2c(n1)CN(C(=O)CC1CN(c3ccnc(-c4cnoc4)c3)C1)C2 [Compound 27] | < 0.1
30 | Cc1cc(C)c2c(n1)CN(C(=O)CC1CN(c3ccnc(-c4nc(C)nn4C)c3)C1)C2 [Compound 96] | < 0.1
31 | C=C1CC(Oc2cc(N3CC(CC(=O)N4Cc5c(C)cc(=O)n(C)c5C4)C3)ccn2)C1 [Compound 165] | < 0.1
32 | Cc1cc(=O)n(C(F)F)c2c1CN(C(=O)CC1CN(c3ccnc(OC4CCOC4)c3)C1)C2 (stereo not drawn) [Compound 180] | < 0.1
33 | Cc1cc(=O)n(C)c2c1CN(C(=O)CC1CN(c3ccnc(OC4CC(F)(F)C4)c3)C1)C2 [Compound 101] | < 0.1
34 | Cc1nc(-c2cnn(C(F)F)c2)nc2c1CN(C(=O)CC1CN(c3ccnc(C(F)(F)F)c3)C1)C2 [Compound 173] | < 0.1
35 | Cc1nc(-c2cnn(C)c2)nc2c1CN(C(=O)CC1CN(c3nc(C4CC4)ncc3F)C1)C2 [Compound 207] | < 0.1
36 | Cc1c2c(n(C(F)F)c(=O)c1F)CN(C(=O)CC1CN(c3ccnc(OC4CC(=C(F)F)C4)c3)C1)C2 (stereo not drawn) [Compound 201] | < 0.1
37 | Cc1ccn(-c2cc(N3CC(CC(=O)N4Cc5nc(CO)cc(C)c5C4)C3)ccn2)n1 [Compound 84] | < 0.1
38 | Cc1nc(C#N)nc2c1CN(C(=O)CC1CN(c3ccnc(OC4CC(F)(F)C4)c3)C1)C2 [Compound 115] | < 0.1
39 | Cc1c2c(n(C(F)F)c(=O)c1F)CN(C(=O)CC1CN(c3ccnc(C(F)(F)F)c3)C1)C2 [Compound 178] | < 0.1
40 | Cc1c2c(n(C)c(=O)c1F)CN(C(=O)CC1CN(c3ccnc(Oc4cnn(C)c4)c3)C1)C2 [Compound 214] | < 0.1
41 | Cc1cc(=O)n(C)c2c1CN(C(=O)CC1CN(c3ccnc(C(F)(F)F)c3)C1)C2 [Compound 100] | < 0.1
42 | Cc1cc(-c2cnn(C)c2)nc2c1CN(C(=O)CC1CN(c3nc(C4CC4)ncc3F)C1)C2 [Compound 204] | < 0.1
43 | Cc1c2c(n(C)c(=O)c1F)CN(C(=O)CC1CN(c3ccnc(OC4CC(=C(F)F)C4)c3)C1)C2 (stereo not drawn) [Compound 213] | < 0.1
44 | Cc1cc(CO)nc2c1CN(C(=O)CC1CN(c3ccnc(OC4CC(F)(F)C4)c3)C1)C2 [Compound 81] | < 0.1
45 | Cc1cc(=O)n(C(F)F)c2c1CN(C(=O)CC1CN(c3ccnc(OC4CC(=C(F)F)C4)c3)C1)C2 (stereo not drawn) [Compound 200] | < 0.1
46 | Cc1cc(C)c2c(n1)CN(C(=O)CC1CN(c3ccnc(NC(=O)C4CC4)c3)C1)C2 [Compound 24] | < 0.1
47 | Cc1ncn(-c2cc(C)c3c(n2)CN(C(=O)CC2CN(c4ccnc(C(F)(F)F)c4)C2)C3)n1 [Compound 172] | < 0.1
48 | Cc1ccn(-c2cc(N3CC(CC(=O)N4Cc5c(C)cc(=O)n(C)c5C4)C3)cnn2)n1 [Compound 133] | < 0.1
49 | Cc1cc(-c2cnoc2)nc2c1CN(C(=O)CC1CN(c3ccnc(OC4CC(F)(F)C4)c3)C1)C2 [Compound 216] | < 0.1
50 | Cc1cc(C)c2c(n1)CN(C(=O)CC1CN(c3ccnc(OC4CCC(F)(F)C4)c3)C1)C2 (stereo not drawn) [Compound 83] | < 0.1
51 | Cc1cc(C)c2c(n1)CN(C(=O)CC1CN(c3cc(-n4ccc(C)n4)ncn3)C1)C2 [Compound 48] | < 0.1
52 | Cc1nc(C#N)c2c(n1)CN(C(=O)CC1CN(c3ccnc(OC4CC(F)(F)C4)c3)C1)C2 [Compound 107] | < 0.1
53 | Cc1ncn(-c2cc(N3CC(CC(=O)N4Cc5c(C)cc(=O)n(C)c5C4)C3)ccn2)n1 [Compound 127] | < 0.1
54 | Cc1cc(=O)n(C)c2c1CN(C(=O)CC1CN(c3ccnc(-n4ccc(F)n4)c3)C1)C2 [Compound 119] | < 0.1

— patent EP4733303A1, “MUSCARINIC M4 RECEPTOR AGONIST AND USE THEREOF” (Haisco Pharmaceutical Group Co., Ltd., priority 2023, dated 2024)
